The source of these data is publication PMC2818847 (PLoS ONE, 2010).

This test addresses T1, Py235 (reticulocyte binding protein), nucleotide binding domain NBD94 (Plasmodium yoelii, UniProt Q7RPU0).
T1 construct: gene PY01365
The experiment in a line: fluorescence correlation spectroscopy titration.

A word on the Kd: it is the equilibrium constant for the complex coming apart. Lower therefore signals tighter binding. Substance EDA-ADP ATTO-647N had a Kd of 331 ± 1.8 µM.

For EDA-ATP ATTO-647N, binding was put at a Kd of 228 ± 2.3 µM.
